Experiments:
REC-1 MCL xenograft = test: Human REC-1 MCL xenograft model; assay type: in vivo, mice; details: for Tumor growth inhibition (TGI): Compound 1 7.5 mg/kg p.o. BID, Ibrutinib 25 mg/kg p.o. BID; for tumor growth / anti-tumor effect (in words): Compound 1 7.5 mg/kg BID, Ibrutinib 25 mg/kg BID, rituximab 200 µg/dose i.p. Q4D
Procedure: (§1) REC-1 cells were cultured in RPMI1640 complete medium supplemented with 10% (v/v) fetal bovine serum, and 100 µg/mL of penicillin and streptomycin. On the day of implantation, culture medium was replaced with fresh medium. Four hours later, media was removed and cells were collected as described above. Cells were re-suspended in cold (4° C.) PBS and same volume of matrigel was added to give a final concentration of 5×10^7 cells/mL for REC-1. Re-suspended cells were placed on ice prior to inoculation. The right flank region of each mouse was cleaned with 75% ethanol prior to cell inoculation. Animals were then injected subcutaneously with 1×10^7 REC-1 cells in 200 µl of cell suspension in the right front flank via a 26-gauge needle.
On day 9 after inoculation, animals were randomly divided into 6 groups with 7 mice per group. […] After implantation, primary tumor volume was measured in two dimensions using a calliper.
Individual body weight was recorded twice weekly, with mice being monitored daily for clinical signs of toxicity for the duration of the study. Mice were euthanized using carbon dioxide when their tumor volume reached 2,500 mm^3 after twice measurements, the tumor was ulcerated, or body weight loss exceeded 20%.
(§2) Tumor volume was calculated using the formula: V = 0.5 × (a × b^2) where a and b are the long and short diameters of the tumor, respectively. Tumor growth inhibition (TGI) was calculated using the following formula:
(§3) • treated t = treated tumor volume at time t • placebo t = placebo tumor volume at time t

[1] = system: REC-1/NK92MI MCL xenograft; test: Human REC-1/NK92MI mantle cell lymphoma xenograft model; assay type: in vivo, NOD/SCID mice; details: Compound 1 2.5 mg/kg p.o. BID, obinutuzumab 2 mg/kg i.p. QW
Procedure: REC-1 cells were cultured in RPMI1640 complete medium supplemented with 10% (v/v) fetal bovine serum, and 100 µg/mL of penicillin and streptomycin. NK92MI/CD16V cell line, overexpressing CD16 and FcRγ chain, was established from parental cell line NK92MI. The cells were maintained in MEM alpha supplemented with 0.2 mM inositol; 0.1 mM 2-mercaptoethanol; 0.02 mM folic acid; 1×NEAA; adjust to a final concentration of 20% (v/v) fetal bovine serum and 100 µg/mL of penicillin and streptomycin. […]
On day 3 after inoculation, animals were randomly divided into four groups with 12 mice per group. […] Treatments were administered in a volume of 10 mL/kg body weight, assessed immediately before dosing and the volume dosed was adjusted accordingly. […] After implantation, primary tumor volume was measured in two dimensions using a calliper.
(§4) Individual body weight was recorded twice weekly, with mice being monitored daily for clinical signs of toxicity for the duration of the study. […]
Tumor volume was calculated using the formula: V = 0.5 × (a × b^2) where a and b are the long and short diameters of the tumor, respectively. Tumor growth inhibition (TGI) was calculated using the following formula: […]

TMD-8 DLBCL xenograft = test: Human TMD-8 DLBCL xenograft model; assay type: in vivo, mice; details: for Tumor growth inhibition (TGI): day 46, Compound 1 7.5 mg/kg p.o. BID, obinutuzumab 10 mg/kg i.p. QW
Procedure: as §1, with “TMD-8 DLBCL cells” for “REC-1 cells”, “for TMD-8 cells.” for “for REC-1.”, “1×10^7 TMD-8” for “1×10^7 REC-1”
On day 7 after inoculation, animals were randomly divided into 4 groups with 10 mice per group. […] Treatments were administered in a volume of 10 mL/kg body weight, assessed immediately before dosing and the volume dosed was adjusted accordingly. Compound 1 was administered by oral gavage (p.o.) twice daily (BID) and obinutuzumab was administered by intraperitoneal (i.p.) injection once every week (QW). After implantation, primary tumor volume was measured in two dimensions using a calliper.
Mice were euthanized using carbon dioxide when their tumor volume reached 2,500 mm^3 after twice measurements, the tumor was ulcerated, or body weight loss exceeded 20%.
as §2, §3

[2] = system: A431 epidermoid carcinoma allogeneic model (A431 cells and human PBMCs); test: Human A431 epidermoid carcinoma allogeneic model (Compound 1 and Mab 1); assay type: in vivo, NOD/SCID mice; details: Compound 1 15 mg/kg p.o. BID; Mab 1 10 mg/kg i.p. QW
Procedure: On the day of implantation, human peripheral blood mononuclear cells (PBMCs) were isolated from 150 mL blood donated by a healthy volunteer. Briefly, peripheral blood was collected into vacuum blood collection tubes containing sodium heparin. PBMCs were separated by density gradient centrifugation using Histopaque-1077 and washed one time by Dulbecco’s Phosphate Buffered Saline (DPBS). The cell pellet was suspended with DPBS at appropriate volume to give a final concentration of 1×10^8 cells/mL and placed on ice prior to inoculation.
(§5) A431 cells were cultured in DMEM complete medium supplemented with 10% (v/v) fetal bovine serum, and 100 µg/mL of penicillin and streptomycin. On the day of implantation, culture medium was replaced with fresh medium. […]
(§6) Starting from day 0 after cell inoculation, animals were randomly divided into four groups with 10-11 mice per group. […] Treatments were administered in a volume of 10 mL/kg body weight, assessed immediately before dosing and the volume dosed was adjusted accordingly. […] After implantation, primary tumor volume was measured in two dimensions using a calliper.
as §4
(§7) Tumor volume was calculated using the formula: V = 0.5 × (a × b^2) where a and b are the long and short diameters of the tumor, respectively.

[3] = system: A431 epidermoid carcinoma allogeneic model (A431 cells and human PBMCs); test: Human A431 epidermoid carcinoma allogeneic model (Compound 1 and pembrolizumab); assay type: in vivo, NOD/SCID mice; details: Compound 1 15 mg/kg p.o. BID; pembrolizumab 10 mg/kg i.p. QW
Procedure: On the day of implantation, human peripheral blood mononuclear cells (PBMCs) were isolated from 150 mL blood donated by a healthy volunteer. Briefly, peripheral blood was collected into vacuum blood collection tubes containing sodium heparin. PBMCs were separated by density gradient centrifugation using Histopaque-1077 and washed one time by Dulbecco’s Phosphate Buffered Saline (DPBS). The cell pellet was suspended with DPBS at appropriate volume to give a final concentration of 5× 10^7 cells/mL and placed on ice prior to inoculation.
as §5, §6, §4, §7

[4] = system: obinutuzumab-induced ADCC (IFN-γ secretion); test: Obinutuzumab-induced ADCC assessed by IFN-γ secretion in co-culture of NK92MI cells and Mino cells; assay type: cell-based, human; details: various concentrations
Procedure: Mino cells were cultured in RPMI1640 complete medium supplemented with 10% (v/v) fetal bovine serum, and 100 µg/mLof penicillin and streptomycin. NK92MI/CD16V cell line, overexpressing CD16 and FcRγ chain, was established from parental cell line NK92MI. The cells were maintained in MEM alpha supplemented with 0.2 mM inositol; 0.1 mM 2-mercaptoethanol; 0.02 mM folic acid; 1 ×NEAA; adjust to a final concentration of 20% (v/v) fetal bovine serum and 100 µg/mL of penicillin and streptomycin.
0130] Mino cells (2×10^4cells/well) as the target cells (T) were plated into 96-well plate in triplicates. Cells were treated with vehicle or various concentrations of BTK inhibitors for one hour, followed by co-seeding with NK92MI cells (4×10^4cells/well, as the effector cells (E)) and co-treatment with vehicle or obinutuzumab (2 ug/well) for additional 24 hrs. After incubation, the cell-free supernatants of each well were collected, and the levels of human IFN-γ were measured using Human IFN-γ ELISA Ready-SET-Go kit.

[5] = number of mice, 10 mice per group, Compound 1 7.5 mg/kg, obinutuzumab 10 mg/kg

Row | Compound | Tumor growth inhibition (TGI) (REC-1 MCL xenograft) | tumor growth / anti-tumor effect (in words) (REC-1 MCL xenograft) | Tumor growth inhibition (TGI) (TMD-8 DLBCL xenograft) | Objective responses: total (CR+PR) (TMD-8 DLBCL xenograft; [5]) | anti-tumor effect on tumor volume (in words) [3] | other results
1 | C=CC(=O)N1CCC[C@@H](n2nc(-c3ccc(Oc4ccccc4)cc3)c3c(N)ncnc32)C1 [Ibrutinib, reference compound] | 83% |  |  |  |  | 
2 | rituximab: anti-CD20 mAb [reference compound] |  | tumor growth was retarded |  |  |  | 
3 | C=CC(=O)N1CCC([C@@H]2CCNc3c(C(N)=O)c(-c4ccc(Oc5ccccc5)cc4)nn32)CC1 [Compound 1, (S)-7-(1-acryloylpiperidin-4-yl)-2-(4-phenoxyphenyl)-4,5,6,7-tetra-hydropyrazolo[1,5-a]pyrimidine-3-carboxamide] | 85% | tumor growth was retarded | 81% | 5 | Neither Compound 1 nor pembrolizumab showed anti-tumor effect | Tumor growth inhibition (TGI) ([1]; day 23): 72%; Objective responses: CR (TMD-8 DLBCL xenograft; [5]): 1; anti-tumor effect on tumor volume (in words) [2]: no anti-tumor effect; inhibition of IFN-γ secretion (in words) [4]: much less effective
4 | pembrolizumab: humanized monoclonal IgG4 antibody against PD-1 [reference compound] |  |  |  |  | Neither Compound 1 nor pembrolizumab showed anti-tumor effect | 
5 | obinutuzumab: anti-CD20 mAb (Gazyva®) [reference compound] |  |  | 61% | 2 |  | anti-tumor effect (in words) [1]: no anti-tumor effect; Objective responses: PR (TMD-8 DLBCL xenograft; [5]): 2
